Article PMC6936460 (Proceedings of the National Academy of Sciences of the …, 2019)

Tested on: P. aeruginosa C1
Test: P. aeruginosa lung infection mouse model
Type: in vivo, C57BL/6 mice
Conditions: for median lung bacteria load: 2 times per day for 3 days, n = 8, vehicle 2.51 × 10^7 CFU/g; for inhibition of lung colonization: vs vehicle

Substance: colistin sulfate
- median lung bacteria load (2 mg/kg i.v.): 1.72 × 10^7 CFU/g
- inhibition of lung colonization (2 mg/kg i.v.): 31%
- median lung bacteria load (4 mg/kg i.v.): 0.86 × 10^7 CFU/g
- inhibition of lung colonization (4 mg/kg i.v.): 65%
